Assay results: paper PMC2572998, “Structures of the Signal Recognition Particle Receptor from the Archaeon Pyrococcus furiosus: Implications for the Targeting Step at the Membrane” (PLoS ONE, 2008)

Molecular target: T1, Pfu-FtsY (Pyrococcus furiosus, UniProt Q8U051)
T1 construct: full-length; N-terminal hexahistidine tag (pET28b, thrombin-cleavable) removed; expressed in E. coli BL21(DE3)-rosetta2; calculated mass 35,810 Da; monomer
T1 sequence (Q8U051 1-322): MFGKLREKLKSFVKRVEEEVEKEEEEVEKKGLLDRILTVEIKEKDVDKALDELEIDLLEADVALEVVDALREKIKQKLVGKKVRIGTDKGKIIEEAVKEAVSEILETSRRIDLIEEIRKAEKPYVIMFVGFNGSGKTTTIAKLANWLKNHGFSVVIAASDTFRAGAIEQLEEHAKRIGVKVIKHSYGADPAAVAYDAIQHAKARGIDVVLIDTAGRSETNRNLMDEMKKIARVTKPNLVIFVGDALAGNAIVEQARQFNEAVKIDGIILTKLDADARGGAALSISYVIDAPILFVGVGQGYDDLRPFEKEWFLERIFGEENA
Assay: X-ray crystal structure, […] Å
Format: binding
Settings: Mg2+; co-crystallised with 10 mM GTP (hydrolysed to GDP), pH 8.0; catalytic site at full occupancy; additional external GDP at crystal contact near insertion box domain (second site, 69% occupancy)

## Nc1nc2c(ncn2[C@@H]2O[C@H](COP(=O)(O)OP(=O)(O)O)[C@@H](O)[C@H]2O)c(=O)[nH]1 [GDP]
  X-ray crystal structure, 2.0 Å: the crystal structure we obtained showed the presence of GDP•magnesium bound in the catalytic site
